Measurements reported in US20070218475A1, “Efficient drug screening for protein targets” (priority 2005, published 2007).
Like-named read-outs stand apart in the source and are kept apart here.

Columns and labels:
[1] = target: Shh signaling; assay: Shh-LIGHT2 assay for Hh pathway activation (Gli-dependent luciferase reporter); format: cell-based, mouse
[2] = target: T1, Smo (Mus musculus, UniProt P56726); assay: Photoaffinity labeling of Smo with 125I-labeled PA-cyclopamine; format: binding
T1 construct: expressed in transfected cells; host or cells: Cos-1

[3] = target: T2, SmoA1 (Mus musculus, UniProt P56726, W539L); assay: Photoaffinity labeling of SmoA1 with 125I-labeled PA-cyclopamine; format: binding; settings: Cos-1 cells, SmoA1-Myc3
T2 construct: expressed in transfected cells; host or cells: Cos-1
Experimental: Photoaffinity labeling of Smo proteins: Cos-1 cells were cultured in 6-well plates and transfected with Smo-Myc3 or SmoA1-Myc3 expression vectors (1 μg/well). Two days after transfection, each well was incubated with 1 μCi of ^125I-labeled PA-cyclopamine (˜0.5 nM final concentration) in phenol red-free DMEM containing 0.5% bovine calf serum and various concentrations of the indicated compounds for 10 minutes at 37° C. Solvent vehicle alone (MeOH or DMSO) was used as a control in these experiments. PA-cyclopamine was then activated by 254 nm light (80,000 μJ/cm^2; Stratalinker UV-cross-linker) at room temperature. The cells were immediately chilled on ice, removed from the plates by scraping, and then directly lysed and sonicated in SDS-PAGE loading buffer. Total cell lysates were separated by SDS-PAGE and transferred to nitrocellulose for analysis by autoradiography and western blotting with an anti-Myc monoclonal antibody (9E10; Santa Cruz Biotechnology).

[4] = target: T3, SmoA1-GFP (Mus musculus, UniProt P56726, W539L); assay: Localization study of SmoA1-GFP in C3H/10T1/2 cells; format: cell-based
T3 construct: expressed in transfected cells; host or cells: C3H/10T1/2
Experimental: Localization studies of Smo and SmoA1 proteins: C3H/10T1/2 cells (ATCC) were cultured in DMEM containing 10% fetal bovine serum, 0.5 μg/ml ZnSO4 and β-mercaptoethanol (3.5 μL/500 ml DMEM) on glass coverslips (Bioptechs) in […]. […] To assess SmoA1 subcellular localization, either an ER marker (pECFP-ER; Clontech) or a Golgi marker (pECFP-Golgi; Clontech) was cotransfected with the SmoA1-YFP construct. […] Fluorescent protein illumination, detection and imaging was performed on a Zeiss inverted microscope outfitted with a Xenon light source (Lambda DG4; Sutter instruments), single or dual-pass filters (Chroma Technologies), and a cooled CCD camera (Roper Scientific). Images were acquired and processed with Metamorph software (Universal Images).

[5] = Keeler and Binns 1965; Berman et al. 2002; cited from earlier work
[6] = target: T1, Smo; assay: Fluorescence (BODIPY-cyclopamine) binding assay, Smo-expressing Cos-1 cells
Experimental: (§1) For flow cytometry experiments, the cells were then trypsinized, collected by centrifugation, resuspended in phenol red-free DMEM containing 0.5% bovine calf serum, and analyzed for green fluorescence (FACScan, Beckton Dickinson). […] Curve fitting analysis was performed with Kaleidograph (Synergy Software).

[7] = target: T4, SmoΔCRD (Mus musculus, UniProt P56726, DEL68-182); assay: Fluorescence (BODIPY-cyclopamine) binding assay, Cos-1 cells expressing SmoΔCRD; settings: 150 nM KAAD-cyclopamine
T4 construct: expressed in transfected cells; host or cells: Cos-1
Description: (§2) Preparation of Smo fusion proteins and deletion mutants: Both Smo-Myc3 and SmoA1-Myc3 are C-terminally fused to three consecutive Myc epitopes. […] Smo-GFP is comprised of green fluorescent protein fused to the C-terminus of Smo, and the fluorescent proteins in SmoA1-YFP, and SmoA1-GFP are similarly fused to the C-terminus of SmoA1. All constructs were generated by PCR and verified by DNA sequencing.
as §1

[8] = target: T5, SmoΔCT (Mus musculus, UniProt P56726); assay: Fluorescence (BODIPY-cyclopamine) binding assay, Cos-1 cells expressing SmoΔCT; settings: 150 nM KAAD-cyclopamine
T5 construct: expressed in transfected cells; host or cells: Cos-1
T5 sequence (P56726 33-555 limits assumed): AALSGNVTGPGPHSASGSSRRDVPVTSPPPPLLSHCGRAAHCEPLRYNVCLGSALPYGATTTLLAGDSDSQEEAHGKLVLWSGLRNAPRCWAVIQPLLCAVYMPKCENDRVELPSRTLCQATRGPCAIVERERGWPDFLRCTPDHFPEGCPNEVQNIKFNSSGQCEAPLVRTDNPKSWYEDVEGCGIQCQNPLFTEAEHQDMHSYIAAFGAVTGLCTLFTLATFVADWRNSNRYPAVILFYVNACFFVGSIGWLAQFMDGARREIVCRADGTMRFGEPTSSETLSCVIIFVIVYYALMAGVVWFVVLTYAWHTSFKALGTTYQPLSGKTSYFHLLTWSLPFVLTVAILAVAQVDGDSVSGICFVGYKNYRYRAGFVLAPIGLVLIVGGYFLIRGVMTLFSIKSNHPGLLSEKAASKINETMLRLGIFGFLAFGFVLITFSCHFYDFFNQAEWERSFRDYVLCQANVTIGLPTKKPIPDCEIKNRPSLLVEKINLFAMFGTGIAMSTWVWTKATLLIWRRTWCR
Description: as §2, §1

[9] = target: T6, SmoA1-Myc3 (Mus musculus, UniProt P56726, W539L); assay: Endo H digestion of SmoA1-Myc3 (glycosylation state) in Cos-1 cells; format: cell-based; settings: 5 μM KAAD-cyclopamine
T6 construct: expressed in transfected cells; host or cells: Cos-1
Experimental: Endo H digestion of Smo proteins: Cos-1 cells were cultured in DMEM containing 10% fetal bovine serum in 6-well plates and transfected with Smo-Myc3 or SmoA1-Myc3 expression vectors (1 μg/well). One day after transfection, 5 μM KAAD-cyclopamine (in MeOH, final concentration 0.1%) was added to a well of the SmoA1-Myc3-expressing cells. Two days after transfection, each well of cells washed twice with PBS and lysed with 300 μL of RIPA buffer (50 mM Tris-Cl, pH 7.5, 150 mM NaCl, 1% NP-40, 0.5% sodium deoxycholate, 1 mM EDTA, 1 (μg/ml leupeptin, 1 μg/ml aprotinin, 0.2 mM phenylmethylsulfonyl fluoride). Cell lysates were centrifuged at 20,000×g for 15 minutes at 4° C., and the supernatant was then centrifuged at 100,000×g for 30 minutes. The supernatant of the second centrifugation was then used for glycosidase treatments and/or SDS-PAGE. For glycosidase treatments, 45 μL of cell lysate was denatured in 0.5% SDS, 1% β-mercaptoethanol for 10 minutes at room temperature and then incubated in 50 mM sodium citrate (pH 5.5) and 50 units of endoglycosidase-H (New England Biolabs) at 37° C. overnight. The anti-Myc monoclonal antibody was used for western blotting, following SDS-PAGE separation and protein transfer to nitrocellulose.

[10] = tested on: Shh signaling; settings: read-out: IC50 in the Shh-LIGHT2 assay, Taipale et al. 2000; cited from earlier work

T1 sequence (P56726 33-793): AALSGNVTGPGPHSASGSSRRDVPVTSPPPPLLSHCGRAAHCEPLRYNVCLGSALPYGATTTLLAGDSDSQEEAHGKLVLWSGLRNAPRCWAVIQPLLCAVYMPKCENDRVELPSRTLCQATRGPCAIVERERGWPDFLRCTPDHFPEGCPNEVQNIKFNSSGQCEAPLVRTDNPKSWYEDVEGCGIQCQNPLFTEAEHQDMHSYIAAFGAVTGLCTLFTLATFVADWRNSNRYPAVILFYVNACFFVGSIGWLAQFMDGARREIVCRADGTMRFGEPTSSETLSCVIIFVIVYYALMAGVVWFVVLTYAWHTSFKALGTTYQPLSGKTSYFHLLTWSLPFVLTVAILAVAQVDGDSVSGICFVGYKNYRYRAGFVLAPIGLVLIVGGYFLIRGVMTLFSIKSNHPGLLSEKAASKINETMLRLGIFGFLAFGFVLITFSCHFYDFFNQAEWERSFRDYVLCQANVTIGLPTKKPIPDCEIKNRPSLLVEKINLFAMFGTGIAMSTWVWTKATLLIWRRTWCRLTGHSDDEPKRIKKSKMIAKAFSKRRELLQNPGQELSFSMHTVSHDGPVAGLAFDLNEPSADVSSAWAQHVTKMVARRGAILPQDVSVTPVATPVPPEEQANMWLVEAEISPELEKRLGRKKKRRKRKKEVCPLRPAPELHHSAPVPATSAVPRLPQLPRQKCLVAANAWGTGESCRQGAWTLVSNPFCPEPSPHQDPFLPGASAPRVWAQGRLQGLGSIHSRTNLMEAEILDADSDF
T3 sequence (P56726 33-793 W539L): as the sequence (P56726 33-793) above, with W507L counted along it
T4 sequence (P56726 with tags, fused parts or gaps DEL68-182): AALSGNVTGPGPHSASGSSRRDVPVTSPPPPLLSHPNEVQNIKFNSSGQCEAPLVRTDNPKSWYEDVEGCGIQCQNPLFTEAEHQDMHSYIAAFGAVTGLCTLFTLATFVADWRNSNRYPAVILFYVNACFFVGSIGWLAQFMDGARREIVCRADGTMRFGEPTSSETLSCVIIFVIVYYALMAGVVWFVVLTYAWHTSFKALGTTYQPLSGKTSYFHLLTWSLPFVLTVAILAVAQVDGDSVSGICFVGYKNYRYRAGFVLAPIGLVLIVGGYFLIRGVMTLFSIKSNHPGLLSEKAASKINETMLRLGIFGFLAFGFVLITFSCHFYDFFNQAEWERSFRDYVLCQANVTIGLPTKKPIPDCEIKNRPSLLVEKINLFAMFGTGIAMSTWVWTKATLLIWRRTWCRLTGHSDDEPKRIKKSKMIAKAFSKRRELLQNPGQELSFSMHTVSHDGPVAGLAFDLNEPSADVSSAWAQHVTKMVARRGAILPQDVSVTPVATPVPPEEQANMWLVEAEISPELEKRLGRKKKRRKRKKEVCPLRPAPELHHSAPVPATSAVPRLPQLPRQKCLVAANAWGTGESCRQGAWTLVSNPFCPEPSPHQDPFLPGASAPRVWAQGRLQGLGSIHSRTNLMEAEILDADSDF
T6 sequence (P56726 33-793 W539L): as the sequence (P56726 33-793) above, with W507L counted along it
T2 sequence (P56726 33-793 W539L): as the sequence (P56726 33-793) above, with W507L counted along it

Which results are given for PA-cyclopamine?
IC50 ([1]; Shh-LIGHT2 mouse cultured cell assay, read-out: IC50, inhibition of Shh signaling): 150 nM; photoaffinity labeling of Smo-Myc3 (two forms) ([2]; Cos-1 cells transiently transfected, upon photoactivation): readily labeled; photoaffinity labeling of endogenous mouse Smo ([2]; live NTH-3T3 cells, light activation): did not detectably label; photoaffinity cross-linking of SmoA1 [3]: unable to efficiently cross-link

With `CNC1CCC(N(Cc2cccc(-c3ccncc3)c2)C(=O)c2sc3ccccc3c2Cl)CC1` (stereo not drawn) [SAG] as the compound, how does the “ER-localization of SmoA1-GFP” value ([4]; 1 μM) read?
Its value is “reversed”.

For `CC1=C2C[C@H]3[C@@H](CC=C4C[C@@H](O)CC[C@@]43C)[C@@H]2CC[C@]12O[C@@H]1C[C@H](C)CN[C@H]1[C@H]2C` [cyclopamine, reference compound], which IC50 ([1]; Mus musculus, Shh Light2, read-out: IC50, inhibition of Shh signaling) is on record?
The IC50 was 300 nM.

What about the “observable toxicity in treated animals” value [5] of the same compound?
The value was “absence of observable toxicity”.

For `CC1=C2C[C@H]3[C@@H](CC=C4CC(=O)CC[C@@]43C)[C@@H]2CC[C@]12O[C@@H]1C[C@H](C)CN(CCNC(=O)CCCCCNC(=O)CCc3ccccc3)[C@H]1[C@H]2C` [KAAD-cyclopamine], which “inhibition of BODIPY-cyclopamine binding to cells expressing wildtype Smo” value ([6]; 150 nM KAAD-cyclopamine) is on record?
The value was “inhibited”.

What about the Kd ([6]; competition of 5 nM BODIPY-cyclopamine binding, flow cytometry, Cos-1 cells, read-out: apparent dissociation constant (Kd), KAAD-cyclopamine/Smo complex) of the same compound?
The Kd was 23 nM.

What about the “inhibition of BODIPY-cyclopamine binding to cells expressing SmoΔCRD” value [7] of the same compound?
Its value is “inhibited”.

What about the “inhibition of BODIPY-cyclopamine binding to cells expressing SmoΔCT” value [8] of the same compound?
The value was “inhibited”.

And the “competition of PA-cyclopamine labeling of Smo-Myc3” value ([2]; 1.5 μM KAAD-cyclopamine, Cos-1 cells)?
Its value is “inhibited”.

What about the “ER-localization of SmoA1-GFP” value ([4]; 10 μM) of the same compound?
Its value is “reversed”.

What about the “shift in SmoA1 glycosylation state (endo H)” value [9] of the same compound?
The value was “partial conversion of SmoA1 to an endo H-resistant form”.

What about the IC50 [10] of the same compound?
The IC50 was 20 nM.
